Test results reported in US10011573B2, “Human androgen receptor DNA-binding domain (DBD) compounds as therapeutics and methods for their use” (The University of British Columbia, priority 2014, dated 2018).

Assays:
PSA [1] = test: Prostate-specific antigen (PSA) assay, secreted PSA from the eGFP assay plates; format: cell-based, human; details: Homo sapiens
Procedure: 3. Prostate-specific antigen (PSA) assay: The evaluation of PSA levels secreted into the media was performed in parallel to the eGFP assay using the same plates. After cells were incubated for 3 days, 150 μl of the media was taken from each well, and added to 150 μl of PBS.

AR Y594D mutant = target: T1, AR Y594D mutant (Homo sapiens, UniProt P10275, Y594D); test: ARR3tk-luciferase reporter assay in PC3 cells, AR Y594D; format: cell-based
T1 construct: expressed in transfected cells; host or cells: PC3
Procedure: 8. Mutation Studies: The residues in the predicted binding site were mutated using the Quickchange™ Site-Directed Mutagenesis Kit as per the instructions.
9. Transient Transfection: The PC3/MCF7 cells were seeded into a 96-well plate (2,000 cells/well). After 24 hrs, the wild-type AR (50 ng/well)/AR mutants and AR3TK-luciferase plasmids (1:3) were co-transfected into PC3 cells or ERE-luciferase (50 ng/well) was transfected into MCF7 cells using transfection reagent TT20. 24 hrs after the transfection, the cells were treated with the compounds at various concentrations. And 24 hrs later, the cells were lysed and the reading was taken using a luminometer.

AR v567es = test: ARR3tk-luciferase assay in R1-D567 cells; format: cell-based, human
PSA [2] = test: PSA measurements, LNCaP cells, 1 nM R1881, 2 days; format: cell-based, human
Procedure: Following the incubation period, 150 μl of the media was taken from each well, and PSA levels were quantified using a Cobas e411 analyzer (Roche Applied Science™) according to the manufacturer's instructions. The same instrument was used to analyze serum PSA from mice during the in vivo analysis.

androgen receptor (AR) = target: T2, androgen receptor (AR) (Homo sapiens, UniProt P10275, T878A); test: eGFP cellular AR transcription assay (LNCaP eGFP cells, LN-ARR2PB-eGFP)
T2 sequence (P10275 1-920 T878A): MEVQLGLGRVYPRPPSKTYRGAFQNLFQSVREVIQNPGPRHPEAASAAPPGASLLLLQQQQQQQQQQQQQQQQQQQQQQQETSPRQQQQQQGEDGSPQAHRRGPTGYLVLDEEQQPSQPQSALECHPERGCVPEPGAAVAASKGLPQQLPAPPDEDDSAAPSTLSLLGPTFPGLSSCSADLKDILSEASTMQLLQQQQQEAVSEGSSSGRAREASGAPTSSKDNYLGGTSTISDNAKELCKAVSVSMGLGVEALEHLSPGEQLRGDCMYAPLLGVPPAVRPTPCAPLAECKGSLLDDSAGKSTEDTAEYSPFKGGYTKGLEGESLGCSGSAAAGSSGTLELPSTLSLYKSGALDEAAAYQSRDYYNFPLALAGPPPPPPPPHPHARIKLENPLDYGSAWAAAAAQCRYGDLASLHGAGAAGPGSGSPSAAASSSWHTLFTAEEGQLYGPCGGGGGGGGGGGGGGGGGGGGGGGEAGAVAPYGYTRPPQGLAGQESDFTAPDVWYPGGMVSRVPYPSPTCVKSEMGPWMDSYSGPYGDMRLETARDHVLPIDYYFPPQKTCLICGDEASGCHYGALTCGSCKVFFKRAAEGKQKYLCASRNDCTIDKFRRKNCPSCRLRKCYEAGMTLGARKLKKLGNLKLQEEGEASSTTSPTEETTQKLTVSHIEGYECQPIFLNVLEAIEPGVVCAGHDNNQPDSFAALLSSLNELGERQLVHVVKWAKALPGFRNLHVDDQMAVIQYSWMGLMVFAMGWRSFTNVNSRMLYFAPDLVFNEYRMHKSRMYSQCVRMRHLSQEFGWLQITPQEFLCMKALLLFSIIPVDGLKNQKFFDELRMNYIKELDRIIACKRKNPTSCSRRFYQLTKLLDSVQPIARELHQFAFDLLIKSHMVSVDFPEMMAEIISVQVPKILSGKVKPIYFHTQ

AR-DBD+hinge / ARE dsDNA = target: T3, AR-DBD+hinge / ARE dsDNA (Homo sapiens, UniProt P10275); test: Biolayer interferometry analysis of dsDNA (ARE) association with biotinylated AR-DBD+hinge; format: binding; parameters: His tag (C); made in house; host or cells: E. coli BL21 co-transformed with biotin ligase vector (pBir-Acm); details: 50 μM compound
T3 sequence (P10275 558-689): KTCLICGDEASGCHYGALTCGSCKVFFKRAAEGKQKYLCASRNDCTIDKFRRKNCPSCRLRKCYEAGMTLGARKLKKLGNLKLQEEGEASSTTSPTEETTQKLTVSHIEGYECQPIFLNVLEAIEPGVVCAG
Procedure: The plasmid encoding the AR-DBD+hinge was transformed into BL21 (DE3). BL21 cells designated for expression of biotin-labeled AR-DBD+hinge were co-transformed with the Pan4 AR-DBD+hinge (ampicillin selection) and biotin ligase expression vectors (pBir-Acm, chloramphenicol selection). Single colonies were grown in 2 liters of LB media supplemented with 50 μg/ml ampicillin and 35 μg/ml chloramphenicol (where appropriate) to A600 nm=0.6 before induction with 0.1 mM isopropyl β-D-1-thiogalactopyranoside for 3 h at 37° C. Cultures expressing the AR-DBD with the biotinylation sequence were simultaneously supplemented with 0.150 mM biotin during the induction step. Cell pellets were resuspended in ˜20 ml of 50 mM Tris-HCl, pH 8.0, 300 mM NaCl, 5% glycerol (Buffer A) supplemented with 10 mM imidazole and incubated with 0.1 mg/ml chicken egg white lysozyme (Sigma™) and 0.1 mM PMSF protease inhibitor for 30 min on ice. Cell lysis was achieved by sonication, followed by centrifugation at 13,000×g for 30 min at 4° C. The supernatant was rotated with 2 ml of nickel-agarose beads (GE Healthcare™) for 1 h at 4° C. and then directly loaded onto a Poly-Prep 10-ml gravity chromatography column (Bio-Rad™). Washing was performed with 2×4 ml of Buffer A supplemented with 20 mM imidazole. Pure proteins were eluted in 500-μl fractions with 2 ml of Buffer A containing 250 mM imidazole.
Biolayer interferometry analysis on a ForteBio Octet Red™ instrument was carried out using biotinylated AR-DBD+hinge in Buffer A with 5% DMSO throughout all experiments. The DBD (0.1 mg/ml) was loaded onto streptavidin sensors in 200 μl of buffer for 30 min, followed by blocking of free streptavidin sites with biocytin (10 μg/ml) for 10 min. DBD-loaded sensors were then pre-equilibrated in 50 μM compound or 5% DMSO alone for 100 s in the same buffer. The kinetics of DNA association were monitored by moving sensors into wells containing dsDNA (ARE, 3 μM) supplemented with 50 μM compound for 120 s. This was followed by dissociation in buffer+compound, but lacking DNA, for an additional 120 s. Biocytin-blocked control sensors (no AR-DBD) were subjected to the same experimental conditions, and nonspecific interactions with dsDNA were subtracted from each curve.

[3] = LNCaP eGFP cells, R1881, secreted PSA
[4] = eGFP IC50, LNCaP eGFP cells, 0.1 nM R1881

T1 sequence (P10275 whole entry Y594D): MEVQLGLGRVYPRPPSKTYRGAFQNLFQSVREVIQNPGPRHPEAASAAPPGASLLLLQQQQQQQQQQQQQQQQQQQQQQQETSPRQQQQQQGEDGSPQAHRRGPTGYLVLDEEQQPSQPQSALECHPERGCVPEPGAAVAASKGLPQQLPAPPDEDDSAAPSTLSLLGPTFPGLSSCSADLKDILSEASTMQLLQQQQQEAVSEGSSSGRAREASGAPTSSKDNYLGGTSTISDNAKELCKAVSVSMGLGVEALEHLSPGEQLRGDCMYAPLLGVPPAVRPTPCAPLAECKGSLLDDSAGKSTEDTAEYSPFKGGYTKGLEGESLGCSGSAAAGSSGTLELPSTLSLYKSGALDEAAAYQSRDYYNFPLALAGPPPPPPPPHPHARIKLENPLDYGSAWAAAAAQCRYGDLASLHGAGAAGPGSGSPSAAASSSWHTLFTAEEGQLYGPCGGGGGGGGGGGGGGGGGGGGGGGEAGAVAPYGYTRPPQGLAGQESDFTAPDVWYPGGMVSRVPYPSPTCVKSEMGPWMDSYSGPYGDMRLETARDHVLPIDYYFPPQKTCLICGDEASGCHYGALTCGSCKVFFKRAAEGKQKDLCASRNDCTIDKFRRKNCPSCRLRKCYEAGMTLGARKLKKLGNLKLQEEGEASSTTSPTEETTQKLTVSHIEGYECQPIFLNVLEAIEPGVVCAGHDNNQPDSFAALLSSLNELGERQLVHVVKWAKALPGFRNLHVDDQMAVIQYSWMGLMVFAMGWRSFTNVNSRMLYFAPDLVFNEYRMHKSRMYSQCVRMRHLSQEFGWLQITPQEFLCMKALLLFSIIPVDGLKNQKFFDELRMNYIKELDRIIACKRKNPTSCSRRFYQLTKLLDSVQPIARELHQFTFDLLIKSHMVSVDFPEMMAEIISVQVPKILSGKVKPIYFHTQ

SMILES | IC50 (PSA [1]; [3]) [nM] | IC50 (PSA [1]; Series 1) [nM] | inhibition of Y594D AR luciferase expression (AR Y594D mutant) | inhibition of AR v567es transcriptional activity (AR v567es) | IC50 secreted PSA (PSA [2]) | inhibition at 3 µM (androgen receptor (AR); LNCaP, read-out: % Inhibition (3 μM)) [%] | IC50 (androgen receptor (AR); eGFP IC50 (μM), Series 1) [µM] | IC50 (androgen receptor (AR); [4]) [µM] | dsDNA dissociation from AR-DBD (AR-DBD+hinge / ARE dsDNA) | rate of dsDNA association with AR-DBD (AR-DBD+hinge / ARE dsDNA) | concentration at which Y594D AR is inhibited (AR Y594D mutant; PC3 cells) [µM] | fold improved activities compared to compound 6 (14228) (androgen receptor (AR)) [fold]
c1ccc(-c2csc(N3CCOCC3)n2)cc1 [Compound 14228, 4-(4-phenylthiazol-2-yl)morpholine] | 188 | 280 | not affected | could inhibit | sub-micromolar | 110 | 0.33 | 0.274 | relatively unchanged | significantly slower rate of dsDNA binding | – | –
Brc1ncn(-c2csc(N3CCOCC3)n2)c1Br [Compound 14449] | 170 | 170 | – | could inhibit | sub-micromolar | – | 0.1 | 0.12 ± 0.01 | relatively unchanged | significantly slower rate of dsDNA binding | ≥ 25 | 2
